Reference: article PMC6127322, “Novel Imidazole and Methoxybenzylamine Growth Inhibitors Affecting Salmonella Cell Envelope Integrity and its Persistence in Chickens” (Scientific Reports, 2018)
Converted amounts (≈) assume the structure as drawn. Read-outs that look alike come from different tables or passages of the source.

How the values were obtained:
[1] = test system: Salmonella enterica subsp. enterica serotype Typhimurium; test: Checkerboard assay, SM and antibiotic combinations; type: cell-based; settings: for MBC: Salmonella enterica, TYPHIMURIUM, antibiotic alone, M9 medium, read-out: AB MBCalone
Procedure: The potentiation effect of several antibiotics, commonly used to control Salmonella, was studied in a checkerboard assay. […] The MBC of each antibiotic was determined in M9 medium prior the experiment using a dose-response assay, as described above. For potentiation studies, 100 μl of a S. […] The MBC of each antibiotic was determined as described in the dose-response assay. Bacteria challenged with SMs or antibiotics alone at the same concentrations were used to determine the antibiotic-SM combination effects. […] Further, the bacterial suspension was plated on an agar medium and incubated at 37 °C for 36 hrs. The antibiotic-SM combination effect was calculated based on the determination of the fractional bactericidal concentration (FBC) as previously described[66],[67].

S. Typhimurium = type: cell-based, Salmonella enterica subsp. enterica serovar Typhimurium
Salmonella Saint-Paul = test: Dose-response assay (MBC) on Salmonella serovars; type: cell-based, Salmonella enterica; settings: serovar Saint-Paul, M9 broth
Salmonella Heidelberg = test: Dose-response assay (MBC) on Salmonella serovars; type: cell-based; settings: Salmonella enterica; serovar Heidelberg, M9 broth
Salmonella Newport = test: Dose-response assay (MBC) on Salmonella serovars; type: cell-based; settings: Salmonella enterica; serovar Newport, M9 broth
[2] = test system: nine Salmonella serotypes; test: Activity spectrum and dose-response across Salmonella serotypes; type: cell-based, Salmonella enterica
Procedure: The 128 SMs inhibiting S. Typhimurium growth (20% or higher) were tested for their antimicrobial effect on nine different Salmonella serovars frequently implicated in foodborne gastroenteritis outbreaks. […] Both screens were performed at 200 µM as described in the primary screening. Growth conditions for each strain are described in Supplementary Table S2.
S. Typhimurium was challenged with a determined concentration of SM as described in the primary screen.

[3] = test system: S. Typhimurium LT2 wild-type (WT) strain; test: Dose-response assay (MIC and MBC determination) in M9 broth; type: cell-based, Salmonella enterica subsp. enterica serovar Typhimurium; settings: 12 hrs at 37 °C, read-out: MBC (minimal bactericidal concentration)
Procedure: Typhimurium using high-throughput screening assay in a 96-well plate format. […] Plates were incubated in a Sunrise Tecan kinetic microplate reader for 12 hrs at 37 °C and the optical density (OD) was measured at 600 nm. The percentage of growth inhibition was calculated as: […]. Cultures from wells showing no turbidimetric increase were transferred onto a XLT4 agar plate. Plates were incubated at 37 °C for 36 hrs. […] S. Typhimurium was challenged with a determined concentration of SM as described in the primary screen.

Salmonella Enteritidis = test: Dose-response assay (MBC) on Salmonella serovars; type: cell-based; settings: Salmonella enterica; serovar Enteritidis, M9 broth
Salmonella Javiana = test: Dose-response assay (MBC) on Salmonella serovars; type: cell-based, Salmonella enterica
[4] = test system: Kan^R S. Typhimurium in G. mellonella larvae; test: Efficacy in Salmonella-infected G. mellonella larvae; type: in vivo, Galleria mellonella; settings: for Survival of infected larvae: three days
Procedure: Wax moths were selected as mentioned above. For this study, Kan^R S. Typhimurium was used for challenge. First, the virulence of Kan^R S. Typhimurium was assessed in comparison to WT parent S. Typhimurium strain in G. mellonella. Briefly, larvae (n = 20) were infected in one pro-leg with approximately 8.5 × 10^3 S. Typhimurium suspended in 10 mM MgSO4 (8,5 µl of inoculum) and incubated for three days in the dark at 37 °C in a petri dish. Survival was monitored every 12 hrs for three days. Bacterial quantification was performed once the larvae had died (dark pigmentation or no reaction to a mechanical stimulus) or after 72 hrs of incubation. Larvae were washed once with 70% ethanol, twice with sterile distilled water for 30 sec each, and transferred individually into an Eppendorf® tubes containing 1 ml of 1X PBS and homogenized. The mixture was serially diluted, plated on XLT-4 agar plate supplemented with 50 µg/ml kanamycin, and incubated for 36 hrs at 37 °C. Larvae not treated and larvae treated with the buffer mix were included as controls. The virulence of Kan^R and WT S. Typhimurium strains was assessed by comparing the larval mortality and bacterial counts.
To test the effect of SMs on S. Typhimurium in larvae, SMs and Kan^R S. Typhimurium were injected into two different pro-legs and at different time points as previously described. First, the larvae were treated with SMs, then incubated for 2 hrs at 37 °C in a petri dish, and infected with approximately 8.5 × 10^3 of Kan^R S. Typhimurium per larva. Summary of treatments are described in Supplementary Table S3. Larvae treated with 50 mg/kg chloramphenicol were used as control (lowest concentration of antibiotic allowing 100% larva survival rate; see Supplementary Fig. S3F).
34 Supplemental Table 3. SM treatment groups: wax moth study
Groups Treatment S. Typhimurium*
Negative control 30% DMSO Yes
36 At the given concentration, SMs were soluble at 30% DMSO and higher. Asterisk:
37 larvae were infected with approximately 3.5 X 104 S. Typhimurium bacteria per […]

[5] = antibiotic combined with SM1 at the concentration in the next cell
[6] = antibiotic combined with SM3 at the concentration in the next cell
[7] = antibiotic combined with SM4 at the concentration in the next cell
[8] = antibiotic combined with SM5 at the concentration in the next cell

CO/N=C(\C(=O)N[C@@H]1C(=O)N2C(C(=O)O)=C(COC(C)=O)CS[C@H]12)c1csc(N)n1 [Cefotaxime]
MBC ([1]; 12 h): 3.2 µg/mL | AB MBCcombined [1, 5]: 3.2 µg/mL | AB MBCcombined [1, 6]: 3.2 µg/mL | AB MBCcombined [1, 7]: 3.2 µg/mL | AB MBCcombined [1, 8]: 3.2 µg/mL | Combination effect (FBC class) ([1]; antibiotic with SM1): c (Indifferent (FBC > 1.0 and ≤2.0; reduction in MBCs inferior to 50% for both antibiotic and SM)) | Combination effect (FBC class) ([1]; antibiotic with SM3): c (Indifferent (FBC > 1.0 and ≤2.0; reduction in MBCs inferior to 50% for both antibiotic and SM)) | Combination effect (FBC class) ([1]; antibiotic with SM4): c (Indifferent (FBC > 1.0 and ≤2.0; reduction in MBCs inferior to 50% for both antibiotic and SM)) | Combination effect (FBC class) ([1]; antibiotic with SM5): c (Indifferent (FBC > 1.0 and ≤2.0; reduction in MBCs inferior to 50% for both antibiotic and SM))

CC[C@H]1OC(=O)[C@H](C)[C@@H](O[C@H]2C[C@@](C)(OC)[C@@H](O)[C@H](C)O2)[C@H](C)[C@@H](O[C@@H]2O[C@H](C)C[C@H](N(C)C)[C@H]2O)[C@](C)(O)C[C@@H](C)C(=O)[C@H](C)[C@@H](O)[C@]1(C)O [Erythromycin]
MBC ([1]; 12 h): 200 µg/mL | AB MBCcombined [1, 5]: 200 µg/mL | AB MBCcombined [1, 6]: 200 µg/mL | AB MBCcombined [1, 7]: 200 µg/mL | AB MBCcombined [1, 8]: 200 µg/mL | Combination effect (FBC class) ([1]; antibiotic with SM1): c (Indifferent (FBC > 1.0 and ≤2.0; reduction in MBCs inferior to 50% for both antibiotic and SM)) | Combination effect (FBC class) ([1]; antibiotic with SM3): c (Indifferent (FBC > 1.0 and ≤2.0; reduction in MBCs inferior to 50% for both antibiotic and SM)) | Combination effect (FBC class) ([1]; antibiotic with SM4): c (Indifferent (FBC > 1.0 and ≤2.0; reduction in MBCs inferior to 50% for both antibiotic and SM)) | Combination effect (FBC class) ([1]; antibiotic with SM5): c (Indifferent (FBC > 1.0 and ≤2.0; reduction in MBCs inferior to 50% for both antibiotic and SM))

C[C@@H](O)[C@H]1C(=O)N2C(C(=O)O)=C(S[C@@H]3CN[C@H](C(=O)N(C)C)C3)[C@H](C)[C@H]12 [Meropenem]
MBC ([1]; 12 h): 0.2 µg/mL | MBC [1]: 0.2 µg/mL | AB MBCcombined [1, 7]: 0.2 µg/mL | AB MBCcombined [1, 8]: 0.2 µg/mL | Combination effect (FBC class) ([1]; antibiotic with SM1): b (Additive effect (FBC > 0.5 and ≤ 1.0; percentage reduction in MBCs between 50% and 75% for both antibiotic and SM)) | Combination effect (FBC class) ([1]; antibiotic with SM3): c (Indifferent (FBC > 1.0 and ≤2.0; reduction in MBCs inferior to 50% for both antibiotic and SM)) | Combination effect (FBC class) ([1]; antibiotic with SM4): c (Indifferent (FBC > 1.0 and ≤2.0; reduction in MBCs inferior to 50% for both antibiotic and SM)) | Combination effect (FBC class) ([1]; antibiotic with SM5): c (Indifferent (FBC > 1.0 and ≤2.0; reduction in MBCs inferior to 50% for both antibiotic and SM))

CCn1cc(C(=O)O)c(=O)c2ccc(C)nc21 [Nalidixic acid]
MBC ([1]; 12 h): 16 µg/mL | MBC [1]: 16 µg/mL | AB MBCcombined [1, 6]: 16 µg/mL | AB MBCcombined [1, 7]: 16 µg/mL | AB MBCcombined [1, 8]: 16 µg/mL | Combination effect (FBC class) ([1]; antibiotic with SM1): c (Indifferent (FBC > 1.0 and ≤2.0; reduction in MBCs inferior to 50% for both antibiotic and SM)) | Combination effect (FBC class) ([1]; antibiotic with SM3): c (Indifferent (FBC > 1.0 and ≤2.0; reduction in MBCs inferior to 50% for both antibiotic and SM)) | Combination effect (FBC class) ([1]; antibiotic with SM4): c (Indifferent (FBC > 1.0 and ≤2.0; reduction in MBCs inferior to 50% for both antibiotic and SM)) | Combination effect (FBC class) ([1]; antibiotic with SM5): c (Indifferent (FBC > 1.0 and ≤2.0; reduction in MBCs inferior to 50% for both antibiotic and SM))

CN(CCO)CC(O)Cn1c2ccc(Br)cc2c2cc(Br)ccc21 (stereo not drawn) [SM2]
Concentration in which resistant bacteria were able to grow (S. Typhimurium; M9 broth, 4X MBC): 400 µM | Resistance development of S. Typhimurium (S. Typhimurium; lethal dose (2X MBC) on solid medium or repeated exposure to sub-lethal dose (0.75X MBC) in liquid medium): developed resistance | MBC (Salmonella Saint-Paul): 200 µM (≈ 91.2 µg/mL) | MBC (Salmonella Heidelberg): 200 µM (≈ 91.2 µg/mL) | MBC (Salmonella Newport): 200 µM (≈ 91.2 µg/mL) | Effect against the nine Salmonella serotypes ([2]; 200 µM, M9 broth): cidal | MBC ([2]; Salmonella, read-out: MBCs among the nine serotypes): 100 to 200 µM (≈ 45.6 to 91.2 µg/mL) | MBC [3]: 100 µM (≈ 45.6 µg/mL) | MBC ([3]; Salmonella enterica): 100 µM (≈ 45.6 µg/mL) | MBC (Salmonella Enteritidis): 200 µM (≈ 91.2 µg/mL) | MBC (Salmonella Javiana): 200 µM (≈ 91.2 µg/mL)

O=[N+]([O-])c1ccc(F)c(N=Cc2cc(Cl)cc(Cl)c2O)c1 [SM7]
MBC [3]: 50 µM (≈ 16.5 µg/mL)

COc1cccc(N=Cc2cc(Cl)cc(Cl)c2O)c1 [SM8]
MBC [3]: 100 µM (≈ 29.6 µg/mL)

O=C(N[C@H](CO)[C@H](O)c1ccc([N+](=O)[O-])cc1)C(Cl)Cl [chloramphenicol]
Survival of infected larvae ([4]; 50 mg/kg): 100% | Survival of infected larvae ([4]; 50, 75, and 100 mg/kg, treated 2 hrs before infection): 100% | Lowest concentration allowing 100% larva survival rate ([4]; infected larvae): 50 mg/kg
